The values below are quoted from earlier work in patent publication US6531488B1, “Method of treating neurodegenerative diseases” (Merck & Co., Inc., priority 1998, dated 2003).

Structures can show the parent of a compound that is named as a salt.

In this series the test system is patients with Alzheimer's disease. Conditions: ARICEPT administered alone; patients diagnosed by NINCDS and DMS III-R criteria; assessed with ADAS-cog and CIBIC.

On to `COc1cc2c(cc1OC)C(=O)C(CC1CCN(Cc3ccccc3)CC1)C2` (racemic) [ARICEPT, (±)-2,3-dihydro-5,6-diomethoxy-2-[[1-(phenylmethyl)-4-piperidinyl]methyl]-1H-indene-1-one hydrochloride], for which the “effectiveness for the treatment of the symptoms of Alzheimer's disease” value is reported as “effective”.
